Measured values as given in patent US20220281831A1, “FUSED-GLUTARIMIDE CRBN LIGANDS AND USES THEREOF” (Kymera Therapeutics, Inc., priority 2019, published 2022).

Experiments:
[1] = biological target: His-tagged CRBN-DDB1 complex (Homo sapiens, UniProt Q96SW2); assay: Time-Resolved Fluorescence Resonance Energy Transfer (TR-FRET / HTRF) CRBN binding assay, displacement of Cy5-labeled thalidomide; settings: His-CRBN-DDB1, Cy5-thalidomide 8 nM, 1 hour room temperature
CRBN-DDB1 = CRBN-DDB1 (Homo sapiens, UniProt Q96SW2); assay: Fluorescence Polarization (FP) CRBN binding assay, probe TM-493 (FAM-BB-100); settings: CRBN-DDB1, TM-493 probe, 60 min room temperature
Protocol: Fluorescence Polarization (FP) Assay
Materials: PerkinElmer EnVision 2104 Multilabel Reader, PerkinElmer FITC FP dual emission Label 2100-8060, Corning 384-well microplate #4514, V-CMR-TM-493 (FAM-BB-100), and CRBN-DDB1-180605.
Methods: Dilution buffer (50 mM HEPES-Na pH 7.5, 100 mM NaCl, 2 mM DTT, and 0.005% Tween-20) and compound DMSO dilutions were prepared. 4× compound working solutions were made with 8% DMSO (4×) and 13.8 μL/well of dilution buffer was placed in a new 96-well plate and 1.2 μL/well of above compound DMSO dilutions were added to the wells. 40 nM (4×) TM-493 in dilution buffer was prepared from a 10 μM DMSO stock and 15 μL per well of the TM-493 working solution was transferred into the compound working solution. 160 nM (2×) CRBN-DDB1 working solution was prepared with Dilution Buffer and 10 μL/well were added into a 384-well plate. 10 μL per well of the TM-493/compound mixture were transferred into the 384-well plate. The “positive control” was sample without protein and compound in 2% DMSO. After incubation at room temperature for 60 min, data was collected and read on data on an EnVision with the following setting: Excitation Light (%): 100; Measurement Height: 9.4; G-Factor: 1; Detector Gain 1: 200; Detector Gain 2: 200; Flash Number: 100. Data was processed using GraphPad Prism 7.0
The compound numbers correspond to the compound numbers in Table 1.

His-tagged CRBN-DDB1 complex, sequence (Q96SW2 whole entry): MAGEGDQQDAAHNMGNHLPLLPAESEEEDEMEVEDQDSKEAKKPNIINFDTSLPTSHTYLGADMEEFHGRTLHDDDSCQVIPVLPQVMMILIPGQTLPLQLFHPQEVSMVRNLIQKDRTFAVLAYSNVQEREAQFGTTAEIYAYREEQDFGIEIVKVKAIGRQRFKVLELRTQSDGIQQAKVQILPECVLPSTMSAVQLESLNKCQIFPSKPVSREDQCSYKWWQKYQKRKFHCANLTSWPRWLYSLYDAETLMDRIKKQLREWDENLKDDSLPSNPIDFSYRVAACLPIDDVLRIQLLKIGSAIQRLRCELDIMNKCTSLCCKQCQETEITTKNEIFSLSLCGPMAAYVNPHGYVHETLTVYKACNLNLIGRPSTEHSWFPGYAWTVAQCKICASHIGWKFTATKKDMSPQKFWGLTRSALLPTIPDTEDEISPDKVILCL
His-tagged CRBN-DDB1 complex, sequence (Q16531 whole entry partner): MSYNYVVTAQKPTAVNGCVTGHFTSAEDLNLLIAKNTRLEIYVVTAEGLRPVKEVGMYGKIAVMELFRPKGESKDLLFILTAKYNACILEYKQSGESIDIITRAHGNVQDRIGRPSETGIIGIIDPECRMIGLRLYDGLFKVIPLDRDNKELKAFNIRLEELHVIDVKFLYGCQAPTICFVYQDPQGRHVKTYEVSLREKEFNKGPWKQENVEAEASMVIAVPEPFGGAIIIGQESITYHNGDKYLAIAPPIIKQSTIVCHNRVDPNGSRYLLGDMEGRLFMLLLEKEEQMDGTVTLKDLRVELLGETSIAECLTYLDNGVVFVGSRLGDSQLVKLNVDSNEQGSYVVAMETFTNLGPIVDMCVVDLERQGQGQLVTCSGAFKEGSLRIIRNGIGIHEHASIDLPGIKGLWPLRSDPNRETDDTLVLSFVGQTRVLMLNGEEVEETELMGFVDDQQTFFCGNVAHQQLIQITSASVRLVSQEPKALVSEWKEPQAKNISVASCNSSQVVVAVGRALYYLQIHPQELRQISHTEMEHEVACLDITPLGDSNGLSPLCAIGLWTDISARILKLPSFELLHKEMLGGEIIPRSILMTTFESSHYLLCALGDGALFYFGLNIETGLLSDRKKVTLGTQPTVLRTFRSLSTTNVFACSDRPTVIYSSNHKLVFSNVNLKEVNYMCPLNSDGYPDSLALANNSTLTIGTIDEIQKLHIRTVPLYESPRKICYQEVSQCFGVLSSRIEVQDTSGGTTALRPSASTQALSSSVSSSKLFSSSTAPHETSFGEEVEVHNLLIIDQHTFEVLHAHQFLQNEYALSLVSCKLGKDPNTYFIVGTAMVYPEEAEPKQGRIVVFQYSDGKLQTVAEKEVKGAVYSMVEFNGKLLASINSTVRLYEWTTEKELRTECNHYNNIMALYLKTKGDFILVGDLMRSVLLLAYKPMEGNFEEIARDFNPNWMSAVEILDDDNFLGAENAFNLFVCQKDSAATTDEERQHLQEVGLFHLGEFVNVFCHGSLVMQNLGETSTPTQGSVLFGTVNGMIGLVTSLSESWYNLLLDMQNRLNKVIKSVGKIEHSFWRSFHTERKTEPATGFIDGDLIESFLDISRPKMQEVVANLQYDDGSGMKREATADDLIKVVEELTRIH
CRBN-DDB1, sequence (Q96SW2 whole entry): as the sequence (Q96SW2 whole entry) above
CRBN-DDB1, sequence (Q16531 whole entry partner): as the sequence (Q16531 whole entry partner) above

SMILES	IC50 [1] [µM]	IC50 (CRBN-DDB1) [µM]
O=C1Cc2ccc(O)cc2C(=O)N1 [Compound I-19, 7-hydroxy-2,4-dihydroisoquinoline-1,3-dione]	< 10	> 100
NC(=O)c1ccc2c(c1)C(=O)NC(=O)C2 [Compound I-20, 1,3-dioxo-2,4-dihydroisoquinoline-7-carboxamide]	30 to 100	> 100
CC(=O)Nc1ccc2c(c1)C(=O)NC(=O)C2 [Compound I-21]	30 to 100	10 to 30
O=C1Cc2cccc(O)c2C(=O)N1 [Compound I-23]	10 to 30	30 to 100
O=C1Cc2cccc(Oc3ccccc3)c2C(=O)N1 [Compound I-26, 8-phenoxy-2,4-dihydroisoquinoline-1,3-dione]	< 10	< 10
O=C1NC(=O)c2c(Br)cccc21 [Compound I-29, 4-bromo-2H-isoindole-1,3-dione]	> 100	> 100
CC(=O)Nc1cccc2c1C(=O)NC(=O)C2 [Compound I-42]	10 to 30	30 to 100
O=C1NC(=O)C(F)(F)c2cccc(Br)c21 [Compound I-49]	> 100	> 100
O=C1NC(=O)C(F)(F)c2cccc(C(=O)N3CCc4ccccc43)c21 [Compound I-50]	> 100	> 100
O=C1NC(=O)C2(CC2)c2cccc(Br)c21 [Compound I-58, 8′-Bromo-2′H-spiro[cyclopropane-1,4′-isoquinoline]-1′,3′-dione]	> 100	> 100
O=C1Cc2cccc(NC(=O)c3ccccc3)c2C(=O)N1 [Compound I-62]	< 10	30 to 100
Nc1cccc2c1C(=O)NC(=O)C2(F)F [Compound I-71, 8-Amino-4,4-difluoro-2H-isoquinoline-1,3-dione]	< 10	< 10
O=C1Cc2c(F)cccc2C(=O)N1 [Compound I-72, 5-Fluoro-2,4-dihydroisoquinoline-1,3-dione]	10 to 30	> 100
O=C1Cc2ccc(F)cc2C(=O)N1 [Compound I-74, 7-Fluoro-2,4-dihydroisoquinoline-1,3-dione]	30 to 100	30 to 100
O=C1Cc2cccc(F)c2C(=O)N1 [Compound I-75, 8-Fluoro-2,4-dihydroisoquinoline-1,3-dione]	10 to 30	30 to 100
Cc1ccc2c(c1)CC(=O)NC2=O [Compound I-79]	30 to 100	> 100
CCOC(=O)c1cccc(N2C[C@@H]3C(=O)NC(=O)[C@@H]3C2)c1 [Compound I-133]	10 to 30	> 100
O=C1NC(=O)[C@@H]2CN(c3ccc(Oc4ccccc4)cc3)C[C@H]12 [Compound I-151]	30 to 100	> 100
O=C1NC(=O)[C@@H]2CN(C3CCCC3)C[C@H]12 [Compound I-159]	> 100	> 100
O=C1CC2(CCc3ccccc32)C(=O)N1 (stereo not shown) [Compound I-185]	> 100	> 100
O=C1Cc2cccc(N3CCCCC3=O)c2C(=O)N1 [Compound I-193]	10 to 30	30 to 100
O=C1C[C@@]2(CCc3c([N+](=O)[O-])cccc32)C(=O)N1 [Compound I-197]	> 100	> 100
Cc1cccc(Oc2cccc3c2C(=O)NC(=O)C3)c1 [Compound I-199, 8-(3-Methylphenoxy)-2,4-dihydroisoquinoline-1,3-dione]	< 10	10 to 30
O=C1Cc2cccc(Oc3ccccc3F)c2C(=O)N1 [Compound I-200, 8-(2-Fluorophenoxy)-2,4-dihydroisoquinoline-1,3-dione]	< 10	< 10
Cc1cc2c(c(Oc3ccccc3)c1)C(=O)NC(=O)C2 [Compound I-203, 6-Methyl-8-phenoxy-2,4-dihydroisoquinoline-1,3-dione]	< 10	< 10
CC(C)(C)OC(=O)NCCCCCCCCCc1ccccc1Oc1cccc2c1C(=O)NC(=O)C2 [Compound I-218]	> 100	> 100
CC(C)(C)OC(=O)NCCCc1cccc(Oc2cccc3c2C(=O)NC(=O)C3)c1 [Compound I-220]	10 to 30	30 to 100
CC(C)(C)OC(=O)NCCCCCCCC#Cc1cccc(Oc2cccc3c2C(=O)NC(=O)C3)c1 [Compound I-225]	> 100	> 100
CC(C)(C)OC(=O)NCCCCCCCCCc1cccc(Oc2cccc3c2C(=O)NC(=O)C3)c1 [Compound I-226]	> 100	> 100
CC(C)(C)OC(=O)NCCCc1ccc(Oc2cccc3c2C(=O)NC(=O)C3)cc1 [Compound I-227]	< 10	> 100

Continued, values first:

IC50 [1] [µM]	IC50 (CRBN-DDB1) [µM]	SMILES
> 100	30 to 100	COc1ccccc1-c1ccc2c(c1)C(=O)NC(=O)C2 [Compound I-18, 7-(2-Methoxyphenyl)-2,4-dihydroisoquinoline-1,3-dione]
> 100	10 to 30	Nc1cccc2c1C(=O)NC(=O)C2 [Compound I-22, 8-Amino-2,4-dihydroisoquinoline-1,3-dione]
30 to 100	30 to 100	O=C1Cc2cccc(Nc3ccccc3)c2C(=O)N1 [Compound I-27, 8-(Phenylamino)-2,4-dihydroisoquinoline-1,3-dione]
30 to 100	> 100	Cc1ccccc1-c1cccc2c1C(=O)NC2=O [Compound I-31, 4-(2-methylphenyl)-2H-isoindole-1,3-dione]
> 100	> 100	Cc1ncoc1-c1cccc2c1C(=O)NC2=O [Compound I-33, 4-(4-methyl-1,3-oxazol-5-yl)-2H-isoindole-1,3-dione]
30 to 100	30 to 100	N#Cc1ccccc1-c1cccc2c1C(=O)NC(=O)C2 [Compound I-52, 2-(1,3-Dioxo-2,4-dihydroisoquinolin-8-yl)benzonitrile]
> 100	> 100	O=c1[nH]c(=O)c2cc(Br)ccc2o1 [Compound I-53, 6-Bromo-3H-1,3-benzoxazine-2,4-dione]
> 100	> 100	O=c1[nH]c(=O)c2c(Br)cccc2o1 [Compound I-54, 5-Bromo-3H-1,3-benzoxazine-2,4-dione]
10 to 30	10 to 30	NCc1cccc2c1C(=O)NC(=O)C2 [Compound I-68]
10 to 30	> 100	O=C1Cc2cc(F)ccc2C(=O)N1 [Compound I-73, 6-Fluoro-2,4-dihydroisoquinoline-1,3-dione]
10 to 30	10 to 30	Nc1ccc2c(c1)CC(=O)NC2=O [Compound I-77]
10 to 30	> 100	Cc1cccc2c1CC(=O)NC2=O [Compound I-78]
30 to 100	> 100	COc1cc(F)ccc1N1C[C@@H]2C(=O)NC(=O)[C@@H]2C1 [Compound I-124]
30 to 100	> 100	CCCOc1ccc(N2C[C@@H]3C(=O)NC(=O)[C@@H]3C2)cc1 [Compound I-132]
> 100	> 100	Nc1ccc2c(c1)C1(CC(=O)NC1=O)NC2=O (stereo not shown) [Compound I-175]
30 to 100	> 100	O=C1CC2(Cc3ccccc3C2)C(=O)N1 [Compound I-186, 1,3-dihydrospiro[indene-2,3′-pyrrolidine]-2′,5′-dione]
10 to 30	30 to 100	O=C1Cc2cccc(-n3ccccc3=O)c2C(=O)N1 [Compound I-194]
> 100	> 100	O=C1C[C@]2(CCc3c([N+](=O)[O-])cccc32)C(=O)N1 [Compound I-196]
< 10	10 to 30	O=C1Cc2cccc(Oc3cccc(F)c3)c2C(=O)N1 [Compound I-198, 8-(3-Fluorophenoxy)-2,4-dihydroisoquinoline-1,3-dione]
< 10	< 10	O=C1Cc2cccc(Oc3ccccc3Cl)c2C(=O)N1 [Compound I-202, 8-(2-Chlorophenoxy)-2,4-dihydroisoquinoline-1,3-dione]
< 10	> 100	CC(C)(C)OC(=O)NCCCC#Cc1cccc(Oc2cccc3c2C(=O)NC(=O)C3)c1 [Compound I-221]
30 to 100	30 to 100	CC(C)(C)OC(=O)NCCCCCc1cccc(Oc2cccc3c2C(=O)NC(=O)C3)c1 [Compound I-222]
30 to 100	30 to 100	CC(C)(C)OC(=O)NCCCCCC#Cc1cccc(Oc2cccc3c2C(=O)NC(=O)C3)c1 [Compound I-223]
< 10	> 100	CC(C)(C)OC(=O)NCCCCCCCc1cccc(Oc2cccc3c2C(=O)NC(=O)C3)c1 [Compound I-224]
> 100	> 100	CC(C)(C)OC(=O)NCCCC#Cc1ccc(Oc2cccc3c2C(=O)NC(=O)C3)cc1 [Compound I-228]
> 100	> 100	CC(C)(C)OC(=O)NCCCCCc1ccc(Oc2cccc3c2C(=O)NC(=O)C3)cc1 [Compound I-229]
